Source: patent US20220217970A1, “Perfusion Regulated Organ Therapeutics with Enhanced Controlled Testing” (priority 2021, published 2022)

Key:
[1] = system: split human marginal donor liver (MDL) lobes; experiment: Ki67 and CK-7 immunohistochemistry labeling index of perfused split lobes (Experiment 2)
Protocol: As a proof of concept, the system 10 was used to test the effect on IRI by deferoxamine (DM), which is a chelator of iron and a ferroptosis regulator. During the testing, one liver lobe was used as an internal control for the treated lobe. Ferroptosis, an iron-dependent form of programmed cell death, has been implicated as a mechanism of pathogenesis in models of liver, kidney, and lung reperfusion injury. […] In the DM Agent Treated (DMAT) lobe, DM was administered to one split liver segment, while the other segment served as the No Agent Internal Control (NAIC) lobe. This experiment was deemed as Experiment 2.
(§1) DM Dosing: In addition to the liver lobe weight, the volume of the cold preservation solution was measured. […]
Liver biopsy tissue from each liver segment was fixed in 10% buffered formalin for 24 hours. […] The following describes the specific stains and the methods utilized for quantification.
Ki67 labeling index: The nuclear antigen Ki67 is expressed in the cell cycle phases G1, S, G2 and M, however not during G0. The percentage of the Ki67 positive nuclei are expressed as a labeling index, which provides an objective cell proliferation index in the tissues. […] All the positive (immunoreactive) hepatic nuclei were calculated and subsequently divided by the total number of cells in 5 non-overlapping high-power fields. […]

[2] = system: split human marginal donor liver (MDL) lobes; experiment: Serological liver injury markers during PROTECT normothermic perfusion of split liver lobes (Experiment 2); conditions: DM infusion 0.6 mmol/L, listed as DMAT
Source text: In order to provide anatomic perfusion, a novel NMP described above and shown in FIGS. 1 and 2 was developed using an extra-corporal membrane oxygenation (ECMO) roller pump (Sorin/Stockert S3) with a modified circuit to provide dual blood supply to the hepatic artery and portal vein. Incorporated into this design was an arterial supply that passes through an oxygenator (Capiox Fx) and was connected to the hepatic artery.
Portal venous blood supply bypassed the oxygenator, was delivered to a reservoir, and then flowed by gravity into the portal vein. Pressure was regulated by the intrinsic resistance within the liver's arterial and portal venous circulations, combined with the resistance within the two limbs of the circuit and the flow delivered to each. […]
The circuit was monitored under guidance from a University certified ECMO perfusionist and the hospital ECMO physician team. […]
During each perfusion run (Table 1), laboratory analysis was carried out at regular intervals. Perfusate pH, pCO2, pO2, bicarbonate levels, and serum electrolytes (Na^+, K^+, Cl^−, ionized Ca^2+) were monitored every hour by automated blood gas analysis of both arterial and portal venous blood samples. […] Serum markers of liver injury, specifically AST, ALT, GGT, and alkaline phosphatase, were monitored hourly. […]
as §1

CC(=O)N(O)CCCCCNC(=O)CCC(=O)N(O)CCCCCNC(=O)CCC(=O)N(O)CCCCCN [Deferoxamine]
CK-7 expression (labeling index, bile duct proliferation) ([1]; Experiment 2, DMAT lobe (NAIC 0.30, p=0.29, n=5)): 0.26
Ki67 index (hepatocellular proliferation) ([1]; conclusion of Experiment 2, DMAT lobe (NAIC 0.38, p=0.16)): 0.32
ΔALT (change in serum ALT over the course of the experiment) ([2]; Experiment 2, DM Agent Treated lobe vs No Agent Internal Control lobe (ΔALT NAIC 586)): −405
ΔAST (change in serum AST over the course of the experiment) ([2]; Experiment 2, DM Agent Treated lobe vs No Agent Internal Control lobe (ΔAST NAIC 617)): −380
